# Results reported in patent publication US20230265116A1, “DEGRADATION OF (EGFR) BY CONJUGATION OF EGFR INHIBITORS WITH E3 LIGASE LIGAND AND METHODS OF USE” (BEIGENE, LTD., priority 2020, published 2023).
# What was measured:
# [1] = biological target: T1, EGFR L858R/T790M/C797S (BaF3-LTC cells) (Homo sapiens, UniProt P00533, C797S/L858R/T790M); experiment: EGFR degradation HTRF assay, BaF3-LTC cells; assay type: cell-based; conditions: BaF3-LTC, 16h treatment; for Dmax: maximum percentage of degradation, read-out: LTC Dmax (%); for DC50: read-out: LTC DC50
# T1 construct: expressed in transfected cells; host or cells: BaF3
# T1 sequence (P00533 25-1210 T790M/C797S/L858R): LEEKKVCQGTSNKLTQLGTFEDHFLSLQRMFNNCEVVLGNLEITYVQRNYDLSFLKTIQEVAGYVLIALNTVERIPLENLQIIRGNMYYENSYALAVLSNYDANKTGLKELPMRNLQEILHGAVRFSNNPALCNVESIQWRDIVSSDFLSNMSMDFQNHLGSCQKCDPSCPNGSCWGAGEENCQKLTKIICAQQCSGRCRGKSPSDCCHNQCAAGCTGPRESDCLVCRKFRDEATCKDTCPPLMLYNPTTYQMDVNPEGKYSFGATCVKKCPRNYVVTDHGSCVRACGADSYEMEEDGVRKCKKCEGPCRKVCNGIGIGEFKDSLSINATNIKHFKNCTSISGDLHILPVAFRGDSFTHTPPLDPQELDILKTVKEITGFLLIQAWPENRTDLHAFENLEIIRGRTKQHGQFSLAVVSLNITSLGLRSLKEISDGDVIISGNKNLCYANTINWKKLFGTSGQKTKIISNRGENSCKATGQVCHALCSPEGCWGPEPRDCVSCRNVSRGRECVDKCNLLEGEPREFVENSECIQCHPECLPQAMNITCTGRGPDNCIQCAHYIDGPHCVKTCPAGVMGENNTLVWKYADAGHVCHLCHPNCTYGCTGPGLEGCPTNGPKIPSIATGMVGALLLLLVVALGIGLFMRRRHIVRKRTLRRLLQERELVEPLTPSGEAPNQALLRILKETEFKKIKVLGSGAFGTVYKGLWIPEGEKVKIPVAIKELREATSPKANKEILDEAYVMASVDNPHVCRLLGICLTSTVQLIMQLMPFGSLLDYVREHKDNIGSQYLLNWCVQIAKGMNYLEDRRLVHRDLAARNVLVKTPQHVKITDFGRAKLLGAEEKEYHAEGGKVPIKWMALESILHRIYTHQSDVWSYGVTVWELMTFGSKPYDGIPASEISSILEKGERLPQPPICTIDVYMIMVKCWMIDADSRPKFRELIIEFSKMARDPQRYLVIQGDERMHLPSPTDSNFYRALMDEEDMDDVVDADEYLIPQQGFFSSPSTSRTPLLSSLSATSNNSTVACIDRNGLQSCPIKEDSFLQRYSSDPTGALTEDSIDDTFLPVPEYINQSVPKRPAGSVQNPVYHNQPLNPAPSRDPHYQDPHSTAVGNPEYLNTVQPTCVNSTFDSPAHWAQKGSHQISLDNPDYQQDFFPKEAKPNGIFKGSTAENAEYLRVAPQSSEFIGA
# Procedure, shortened: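 EGFR remaining after a 16 h, 37 °C exposure (8 doses, 5-fold steps from 10 uM final, 0.2% DMSO) was quantified by HTRF antibodies in cell lysate. Percent inhibition relative to DMSO control was fitted by four-parameter logistic to give DC50; Dmax denotes maximal degradation.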
# [2] = tested on: EGFR Del19/T790M/C797S (BaF3-DTC cells); experiment: EGFR degradation HTRF assay, BaF3-DTC cells; assay type: cell-based; conditions: 16h treatment; for DTC Dmax (%): maximum percentage of degradation; for DC50: read-out: DTC DC50
# Procedure, shortened: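 Cells treated 16 h at 37 °C, 5% CO2 in medium with 0.2% DMSO; top final concentration 10 uM, 5-fold dilution, 8 doses. Lysates read by HTRF (665/620 nm); degradation % versus DMSO high control, DC50 from four-parameter fit, Dmax as maximal degradation.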
structure (smiles),measurement,setting,value
"CCc1cc(Nc2ncc(Br)c(Nc3ccc4nccnc4c3P(C)(C)=O)n2)c(OC)cc1N1CCC(N2CCN(CCc3ccc(C4CCC(=O)NC4=O)c(F)c3)C[C@@H]2COC)CC1 (stereo partly drawn) [Example 286, 3-(4-(2-((R)-4-(1-(4-((5-bromo-4-((5-(dimethylphosphoryl)quinoxalin-6-yl)amino)pyrimidin-2-yl)amino)-2-ethyl-5-methoxyphenyl)piperidin-4-yl)-3-(methoxymethyl)piperazin-1-yl)ethyl)-2-fluorophenyl)piperidine-2,6-dione]",Dmax,[1],81.5%
same,DC50,[1],0.0593 µM
same,DTC Dmax (%),[2],75.85%
same,DC50,[2],0.0237 µM
"CCc1cc(Nc2ncc(Br)c(Nc3ccc4nccnc4c3P(C)(C)=O)n2)c(OC)cc1N1CCC(N2CCN(CCc3ccc(C4CCC(=O)NC4=O)c(F)c3)[C@@H](CO)C2)CC1 (stereo partly drawn) [Example 287, 3-(4-(2-((R)-4-(1-(4-((5-bromo-4-((5-(dimethylphosphoryl)quinoxalin-6-yl)amino)pyrimidin-2-yl)amino)-2-ethyl-5-methoxyphenyl)piperidin-4-yl)-2-(hydroxymethyl)piperazin-1-yl)ethyl)-2-fluorophenyl)piperidine-2,6-dione]",Dmax,[1],84.8%
same,DC50,[1],0.0229 µM
same,DTC Dmax (%),[2],88.55%
same,DC50,[2],0.0052 µM
"CCc1cc(Nc2ncc(Br)c(Nc3ccc4nccnc4c3P(C)(C)=O)n2)c(OC)cc1N1CCC(N2CCN(CCc3ccc(C4CCC(=O)NC4=O)c(F)c3)C[C@H]2COC)CC1 (stereo partly drawn) [Example 288, 3-(4-(2-((S)-4-(1-(4-((5-bromo-4-((5-(dimethylphosphoryl)quinoxalin-6-yl)amino)pyrimidin-2-yl)amino)-2-ethyl-5-methoxyphenyl)piperidin-4-yl)-3-(methoxymethyl)piperazin-1-yl)ethyl)-2-fluorophenyl)piperidine-2,6-dione]",Dmax,[1],84.1%
same,DC50,[1],0.333 µM
same,DTC Dmax (%),[2],69.76%
same,DC50,[2],0.0213 µM
"CCc1cc(Nc2ncc(Br)c(Nc3ccc4nccnc4c3P(C)(C)=O)n2)c(OC)cc1N1CCC(N2CCN(CCc3ccc(C4CCC(=O)NC4=O)c(F)c3)[C@H](CO)C2)CC1 (stereo partly drawn) [Example 291, 3-(4-(2-((S)-4-(1-(4-((5-bromo-4-((5-(dimethylphosphoryl)quinoxalin-6-yl)amino)pyrimidin-2-yl)amino)-2-ethyl-5-methoxyphenyl)piperidin-4-yl)-2-(hydroxymethyl)piperazin-1-yl)ethyl)-2-fluorophenyl)piperidine-2,6-dione]",Dmax,[1],87.2%
same,DC50,[1],0.0236 µM
same,DTC Dmax (%),[2],83.17%
same,DC50,[2],0.0079 µM
"CCc1cc(Nc2ncc(Br)c(Nc3ccc4nccnc4c3P(C)(C)=O)n2)c(OC)cc1N1CCC(N2CCN(CCc3ccc(C4CCC(=O)NC4=O)c(F)c3)[C@H](COC)C2)CC1 (stereo partly drawn) [Example 292, 3-(4-(2-((S)-4-(1-(4-((5-bromo-4-((5-(dimethylphosphoryl)quinoxalin-6-yl)amino)pyrimidin-2-yl)amino)-2-ethyl-5-methoxyphenyl)piperidin-4-yl)-2-(methoxymethyl)piperazin-1-yl)ethyl)-2-fluorophenyl)piperidine-2,6-dione]",Dmax,[1],84.2%
same,DC50,[1],0.0323 µM
same,DTC Dmax (%),[2],87.11%
same,DC50,[2],0.0151 µM
"CCc1cc(Nc2ncc(Br)c(Nc3ccc4nccnc4c3P(C)(C)=O)n2)c(OC)cc1N1CCC(N2CCN(CCc3ccc(C4CCC(=O)NC4=O)c(F)c3)[C@@H](COC)C2)CC1 (stereo partly drawn) [Example 293, 3-(4-(2-((R)-4-(1-(4-((5-bromo-4-((5-(dimethylphosphoryl)quinoxalin-6-yl)amino)pyrimidin-2-yl)amino)-2-ethyl-5-methoxyphenyl)piperidin-4-yl)-2-(methoxymethyl)piperazin-1-yl)ethyl)-2-fluorophenyl)piperidine-2,6-dione]",Dmax,[1],85.3%
same,DC50,[1],0.0437 µM
same,DTC Dmax (%),[2],83.85%
same,DC50,[2],0.0174 µM
"CCc1cc(Nc2ncc(Br)c(Nc3ccc4nccnc4c3P(C)(C)=O)n2)c(OC)cc1N1CCC(N2CCN(C(=O)[C@H]3C[C@H](Nc4ccc(C5CCC(=O)NC5=O)cc4)C3)CC2)CC1 (stereo partly drawn) [Example 298, 3-(4-(((1r,3r)-3-(4-(1-(4-((5-bromo-4-((5-(dimethylphosphoryl)quinoxalin-6-yl)amino)pyrimidin-2-yl)amino)-2-ethyl-5-methoxyphenyl)piperidin-4-yl)piperazine-1-carbonyl)cyclobutyl)amino)phenyl)piperidine-2,6-dione]",Dmax,[1],80.8%
same,DC50,[1],0.0167 µM
same,DTC Dmax (%),[2],86.58%
same,DC50,[2],0.00438 µM
"CCc1cc(Nc2ncc(Br)c(Nc3ccc4nccnc4c3P(C)(C)=O)n2)c(OC)cc1N1CCC(N2CCN(C3CCN(c4ccc(C5CCC(=O)NC5=O)cc4)CC3)CC2)CC1 (stereo not drawn) [Example 299, 3-(4-(4-(4-(1-(4-((5-bromo-4-((5-(dimethylphosphoryl)quinoxalin-6-yl)amino)pyrimidin-2-yl)amino)-2-ethyl-5-methoxyphenyl)piperidin-4-yl)piperazin-1-yl)piperidin-1-yl)phenyl)piperidine-2,6-dione]",Dmax,[1],85%
same,DC50,[1],0.0364 µM
same,DTC Dmax (%),[2],80.72%
same,DC50,[2],0.00488 µM
"CCc1cc(Nc2ncc(Br)c(Nc3ccc4nccnc4c3P(C)(C)=O)n2)c(OC)cc1N1CCC(N2CCN(C3CN(c4cc(F)c(C5CCC(=O)NC5=O)c(F)c4)C3)CC2)CC1 (stereo not drawn) [Example 302, 3-(4-(3-(4-(1-(4-((5-bromo-4-((5-(dimethylphosphoryl)quinoxalin-6-yl)amino)pyrimidin-2-yl)amino)-2-ethyl-5-methoxyphenyl)piperidin-4-yl)piperazin-1-yl)azetidin-1-yl)-2,6-difluorophenyl)piperidine-2,6-dione]",Dmax,[1],83.8%
same,DC50,[1],0.017 µM
same,DTC Dmax (%),[2],88.36%
same,DC50,[2],0.00602 µM
"CCc1cc(Nc2ncc(Br)c(Nc3ccc4nccnc4c3P(C)(C)=O)n2)c(OC)cc1N1CCC(N2CCN(CC3CCN(c4cc(F)c(C5CCC(=O)NC5=O)c(F)c4)CC3)CC2)CC1 (stereo not drawn) [Example 303, 3-(4-(4-((4-(1-(4-((5-bromo-4-((5-(dimethylphosphoryl)quinoxalin-6-yl)amino)pyrimidin-2-yl)amino)-2-ethyl-5-methoxyphenyl)piperidin-4-yl)piperazin-1-yl)methyl)piperidin-1-yl)-2,6-difluorophenyl)piperidine-2,6-dione]",Dmax,[1],86.7%
same,DC50,[1],0.0412 µM
same,DTC Dmax (%),[2],90.93%
same,DC50,[2],0.0106 µM
"CCc1cc(Nc2ncc(Br)c(Nc3ccc4nccnc4c3P(C)(C)=O)n2)c(OC)cc1N1CCC(N2CCN(C(=O)C3CN(c4ccc(C5CCC(=O)NC5=O)c(C#N)c4)C3)CC2)CC1 (stereo not drawn) [Example 306, 5-(3-(4-(1-(4-((5-bromo-4-((5-(dimethylphosphoryl)quinoxalin-6-yl)amino)pyrimidin-2-yl)amino)-2-ethyl-5-methoxyphenyl)piperidin-4-yl)piperazine-1-carbonyl)azetidin-1-yl)-2-(2,6-dioxopiperidin-3-yl)benzonitrile]",Dmax,[1],85.8%
same,DC50,[1],0.0171 µM
same,DTC Dmax (%),[2],73.14%
same,DC50,[2],0.00957 µM
"CCc1cc(Nc2ncc(Br)c(Nc3ccc4nccnc4c3P(C)(C)=O)n2)c(OC)cc1N1CCC(N2CCN(C[C@H]3C[C@H](N(C)c4cccc(C5CCC(=O)NC5=O)c4)C3)CC2)CC1 (stereo partly drawn) [Example 307, 3-(3-(((1r,3r)-3-((4-(1-(4-((5-bromo-4-((5-(dimethylphosphoryl)quinoxalin-6-yl)amino)pyrimidin-2-yl)amino)-2-ethyl-5-methoxyphenyl)piperidin-4-yl)piperazin-1-yl)methyl)cyclobutyl)(methyl)amino)phenyl)piperidine-2,6-dione]",Dmax,[1],87.4%
same,DC50,[1],0.0771 µM
same,DTC Dmax (%),[2],73.68%
same,DC50,[2],0.0433 µM
"CCc1cc(Nc2ncc(Br)c(Nc3ccc4nccnc4c3P(C)(C)=O)n2)c(OC)cc1N1CCC(N2CCN(C(=O)C3CCN(c4ccc5nn(C6CCC(=O)NC6=O)cc5c4)CC3)CC2)CC1 (stereo not drawn) [Example 308, 3-(5-(4-(4-(1-(4-((5-bromo-4-((5-(dimethylphosphoryl)quinoxalin-6-yl)amino)pyrimidin-2-yl)amino)-2-ethyl-5-methoxyphenyl)piperidin-4-yl)piperazine-1-carbonyl)piperidin-1-yl)-2H-indazol-2-yl)piperidine-2,6-dione]",Dmax,[1],91.8%
same,DC50,[1],0.0156 µM
same,DTC Dmax (%),[2],93.79%
same,DC50,[2],0.00501 µM
"CCc1cc(Nc2ncc(Br)c(Nc3ccc4nccnc4c3P(C)(C)=O)n2)c(OC)cc1N1CCC(N2CCN(CCc3ccc4nn(C5CCC(=O)NC5=O)cc4c3)CC2)CC1 (stereo not drawn) [Example 309, 3-(5-(2-(4-(1-(4-((5-bromo-4-((5-(dimethylphosphoryl)quinoxalin-6-yl)amino)pyrimidin-2-yl)amino)-2-ethyl-5-methoxyphenyl)piperidin-4-yl)piperazin-1-yl)ethyl)-2H-indazol-2-yl)piperidine-2,6-dione]",Dmax,[1],87.2%
same,DC50,[1],0.0321 µM
same,DTC Dmax (%),[2],92.99%
same,DC50,[2],0.00589 µM
"CCc1cc(Nc2ncc(Br)c(Nc3ccc4nccnc4c3P(C)(C)=O)n2)c(OC)cc1N1CCC(N2CCN(C3CC4(CCN(c5ccc(C6CCC(=O)NC6=O)cc5)CC4)C3)CC2)CC1 (stereo not drawn) [Example 311, 3-(4-(2-(4-(1-(4-((5-bromo-4-((5-(dimethylphosphoryl)quinoxalin-6-yl)amino)pyrimidin-2-yl)amino)-2-ethyl-5-methoxyphenyl)piperidin-4-yl)piperazin-1-yl)-7-azaspiro[3.5]nonan-7-yl)phenyl)piperidine-2,6-dione]",Dmax,[1],76.3%
same,DC50,[1],0.0782 µM
same,DTC Dmax (%),[2],77.19%
same,DC50,[2],0.0318 µM
